Test results as given in PubChem BioAssay AID1996.
Converted amounts (≈) assume the structure as drawn.

Details: buffer; pH 7.4; 200.0 µM

Question: Which solubility kinetic does the source give for `O=C(O)c1cccc2c1C(=O)N(CC1CCCO1)C2` (centres undefined) here?
Answer: The solubility kinetic was greater than 39.2 µg/mL.

Question: Which solubility kinetic does the source give for `O=S(=O)(Cc1ncc(C(F)(F)F)cc1Cl)c1ccccc1` here?
Answer: Its solubility kinetic is greater than 50.4 µg/mL.

Question: With `C#CCN1c2ccccc2Sc2cccnc21` as the compound, how does the solubility kinetic read?
Answer: Its solubility kinetic is 4.8 µg/mL (≈ 20.1 µM).

Question: With `CN(C(=O)CSc1nccc(=O)[nH]1)C1CCCCC1` as the compound, how does the solubility kinetic read?
Answer: Its solubility kinetic is greater than 42.2 µg/mL.

Question: Which solubility kinetic does the source give for `COc1ccccc1C1CCN(Cc2ccccc2Cl)CC1` here?
Answer: Its solubility kinetic is 3.6 µg/mL (≈ 11.4 µM).

Question: With `COc1cc2c(cc1OC)-c1cc(Nc3ccccc3C)nc(=O)n1CC2` as the compound, how does the solubility kinetic read?
Answer: Its solubility kinetic is 49.3 µg/mL (≈ 136 µM).

Question: With `Cc1ccc2[nH]c(C(=O)N3CCN(C(c4ccccc4)c4ccccc4)CC3)cc2c1` as the compound, how does the solubility kinetic read?
Answer: The solubility kinetic was 1 µg/mL (≈ 2.44 µM).

Question: For `CN(Cc1ccccc1)C(=O)COC(=O)c1ccc(Br)c(S(=O)(=O)N2CCOCC2)c1`, which solubility kinetic is on record?
Answer: Its solubility kinetic is 36.7 µg/mL (≈ 71.8 µM).

Question: For `COc1ccc2nc(NCc3cccnc3)sc2c1`, which solubility kinetic is on record?
Answer: Its solubility kinetic is greater than 40.7 µg/mL.

Question: Which solubility kinetic does the source give for `O=C(c1ccc(F)cc1Cl)N1CCN(CCc2ccccc2)CC1` here?
Answer: Its solubility kinetic is greater than 52 µg/mL.

Question: Which solubility kinetic does the source give for `Cc1cnc(C(=O)OCC(=O)Nc2ccc(C)c(S(=O)(=O)N3CCOCC3)c2)cn1` here?
Answer: The solubility kinetic was greater than 65.2 µg/mL.

Question: Which solubility kinetic does the source give for `CN1CCN(Cc2c(F)cccc2Cl)CC1` here?
Answer: The solubility kinetic was 24.2 µg/mL (≈ 99.7 µM).

Question: With `O=C(NCCN1CCOCC1)NC1(C(F)(F)F)Oc2ccc(Cl)cc2O1` (centres undefined) as the compound, how does the solubility kinetic read?
Answer: The solubility kinetic was greater than 59.4 µg/mL.

Question: Which solubility kinetic does the source give for `Cc1ccccc1NC(=O)COC(=O)CC1CCCC1` here?
Answer: Its solubility kinetic is greater than 41.3 µg/mL.

Question: Which solubility kinetic does the source give for `O=C1OC(CO)CN1Cc1ccccc1` (centres undefined) here?
Answer: The solubility kinetic was 30.3 µg/mL (≈ 146 µM).

Question: With `Cn1c(O)c(C=Nc2ccc(Br)cc2)sc1=O` as the compound, how does the solubility kinetic read?
Answer: The solubility kinetic was less than 0.3 µg/mL.

Question: With `CCOc1cc(C2NC(=O)NC2=O)ccc1O` (centres undefined) as the compound, how does the solubility kinetic read?
Answer: Its solubility kinetic is greater than 35.4 µg/mL.

Question: Which solubility kinetic does the source give for `COc1ccc2cc[nH]c2c1` here?
Answer: The solubility kinetic was 15.3 µg/mL (≈ 104 µM).

Question: For `Cc1nc2cc(NC(=O)NCCCO)ccc2o1`, which solubility kinetic is on record?
Answer: Its solubility kinetic is greater than 37.4 µg/mL.

Question: For `Cc1ccsc1C1C(C#N)=C(N)N(N(C)C)C2=C1C(=O)CCC2` (centres undefined), which solubility kinetic is on record?
Answer: The solubility kinetic was greater than 49.3 µg/mL.

Question: For `CSCCC(NC(=O)COc1ccccc1)C(=O)NCc1cccs1` (centres undefined), which solubility kinetic is on record?
Answer: The solubility kinetic was greater than 56.8 µg/mL.

Question: With `CCCCCCCCCCCCCCCC(=O)OC(CC(=O)O)C[N+](C)(C)C.[Cl-]` (centres undefined) as the compound, how does the solubility kinetic read?
Answer: The solubility kinetic was 4.5 µg/mL.

Question: For `Cc1ccc(CC2CC(=O)N(c3cc(Cl)ccn3)C2=O)cc1` (centres undefined), which solubility kinetic is on record?
Answer: Its solubility kinetic is 13.7 µg/mL (≈ 43.5 µM).

Question: For `FC(F)Oc1ccc(NC(=S)NCc2cccnc2)cc1`, which solubility kinetic is on record?
Answer: Its solubility kinetic is greater than 46.4 µg/mL.

Question: For `Cc1ccc(C(=O)ONC(=O)c2ccc(Cl)cc2)cc1[N+](=O)[O-]`, which solubility kinetic is on record?
Answer: Its solubility kinetic is 46.8 µg/mL (≈ 140 µM).

Question: With `O=C(COC(=O)c1cc[n+]([O-])cc1)Nc1ccc([N+](=O)[O-])cc1` as the compound, how does the solubility kinetic read?
Answer: The solubility kinetic was greater than 47.6 µg/mL.

Question: Which solubility kinetic does the source give for `CCC(C)c1ccccc1NC(=O)COC(=O)C1=NN(c2ccccc2)C(=O)CC1` (centres undefined) here?
Answer: The solubility kinetic was greater than 61.1 µg/mL.

Question: With `O=C(NC1CC2CCCC(C1)N2C(=O)Nc1ccccc1)C1CC1` (centres undefined) as the compound, how does the solubility kinetic read?
Answer: Its solubility kinetic is 4.2 µg/mL (≈ 12.8 µM).

Question: Which solubility kinetic does the source give for `Cc1ccc[n+](CC(=O)Nc2cccc(Cl)c2)c1.[Cl-]` here?
Answer: The solubility kinetic was greater than 44.6 µg/mL.

Question: With `CC1CCC2(CC1)NC(=O)N(CC(=O)NC1CCCCC1C)C2=O` (centres undefined) as the compound, how does the solubility kinetic read?
Answer: Its solubility kinetic is greater than 50.3 µg/mL.

Question: Which solubility kinetic does the source give for `N#Cc1ccncc1Sc1ccc(Cl)cc1` here?
Answer: Its solubility kinetic is 25.3 µg/mL (≈ 103 µM).

Question: For `Cc1ccc(OCC(=O)N2CCc3ccccc3C2)c([N+](=O)[O-])n1`, which solubility kinetic is on record?
Answer: The solubility kinetic was greater than 49.1 µg/mL.

Question: With `CC(=O)NCCc1nc2cc(NC(=O)c3ccc(F)cc3)ccc2n1C` as the compound, how does the solubility kinetic read?
Answer: Its solubility kinetic is greater than 53.2 µg/mL.

Question: With `CSc1ccc(S(=O)(=O)NCCCn2ccnc2)cc1` as the compound, how does the solubility kinetic read?
Answer: Its solubility kinetic is greater than 46.7 µg/mL.

Question: Which solubility kinetic does the source give for `COc1ccc(NC(=O)CN(C)C(=O)CCC2CCCC2)cc1` here?
Answer: The solubility kinetic was 45.5 µg/mL (≈ 143 µM).

Question: For `CC(=O)c1cc2c(cc1NC(=O)Cc1ccsc1)OCO2`, which solubility kinetic is on record?
Answer: The solubility kinetic was 10.5 µg/mL (≈ 34.6 µM).

Question: Which solubility kinetic does the source give for `Cc1ccc(NC(=O)CN(C)C(=O)c2ccc(Cl)nc2)cc1` here?
Answer: Its solubility kinetic is greater than 47.7 µg/mL.

Question: For `N/C(=N/OC(=O)c1ccc(Cl)cc1)c1ncc([N+](=O)[O-])s1`, which solubility kinetic is on record?
Answer: Its solubility kinetic is 0.2 µg/mL (≈ 0.612 µM).

Question: With `O=C1CCCc2ccccc2N1Cc1ccccc1` as the compound, how does the solubility kinetic read?
Answer: The solubility kinetic was 37.5 µg/mL (≈ 149 µM).

Question: With `Cl.O=c1cc(CN2CCNCC2)nc2sccn12` as the compound, how does the solubility kinetic read?
Answer: The solubility kinetic was 44 µg/mL.

Question: For `Nc1cc(N2CCCCCC2)c2nonc2c1[N+](=O)[O-]`, which solubility kinetic is on record?
Answer: Its solubility kinetic is 0.9 µg/mL (≈ 3.25 µM).

Question: With `C=CCn1cc(C(=O)OCC)c(=O)c2cc(F)c(F)cc21` as the compound, how does the solubility kinetic read?
Answer: Its solubility kinetic is greater than 44 µg/mL.

Question: With `COc1nc2c(c(-c3cc(Br)cs3)c1C#N)Cc1ccccc1-2` as the compound, how does the solubility kinetic read?
Answer: The solubility kinetic was less than 0.4 µg/mL.

Question: For `CS(=O)(=O)Cc1ccc(C(=O)NC2CCCc3ccccc32)cc1` (centres undefined), which solubility kinetic is on record?
Answer: Its solubility kinetic is 9.6 µg/mL (≈ 28 µM).

Question: With `COCc1cc(C)nc(Oc2ccccc2)c1C#N` as the compound, how does the solubility kinetic read?
Answer: The solubility kinetic was greater than 38.1 µg/mL.

Question: Which solubility kinetic does the source give for `CCOc1ccc2oc(-c3ccccc3)c(C(N)=O)c2c1` here?
Answer: Its solubility kinetic is less than 0.6 µg/mL.

Question: Which solubility kinetic does the source give for `Cc1ccc(S(=O)(=O)NCCC(=O)Oc2ccc3ccc(=O)oc3c2)cc1` here?
Answer: The solubility kinetic was 25.5 µg/mL (≈ 65.8 µM).

Question: Which solubility kinetic does the source give for `Cc1nc(C)c(C(=O)Nc2cccc(C)c2C)s1` here?
Answer: Its solubility kinetic is greater than 39.1 µg/mL.

Question: Which solubility kinetic does the source give for `COc1ccc(S(=O)(=O)Nc2ncccn2)cc1` here?
Answer: The solubility kinetic was 23.1 µg/mL (≈ 87.1 µM).

Question: Which solubility kinetic does the source give for `CC(C)Nc1nc(NC2CCCC2)nc(N2CCOCC2)n1` here?
Answer: The solubility kinetic was 16.3 µg/mL (≈ 53.2 µM).

Question: For `O=[N+]([O-])c1cccc2c(S(=O)(=O)N3CCOCC3)cccc12`, which solubility kinetic is on record?
Answer: Its solubility kinetic is 35.4 µg/mL (≈ 110 µM).

Question: For `O=C(NC(=S)Nc1ccccc1Cl)c1ccco1`, which solubility kinetic is on record?
Answer: Its solubility kinetic is 2.5 µg/mL (≈ 8.91 µM).

Question: With `Cc1nc([N+](=O)[O-])cn1Cc1cccc2ccccc12` as the compound, how does the solubility kinetic read?
Answer: The solubility kinetic was 2.5 µg/mL (≈ 9.35 µM).

Question: With `N#CC1CCCc2c1[nH]c1ccc([N+](=O)[O-])cc21` (centres undefined) as the compound, how does the solubility kinetic read?
Answer: The solubility kinetic was 20.8 µg/mL (≈ 86.2 µM).

Question: With `CCCCNc1nc(Cl)nc(Nc2ccc(C)cc2)n1` as the compound, how does the solubility kinetic read?
Answer: The solubility kinetic was 1.7 µg/mL (≈ 5.83 µM).

Question: For `Cc1cnc(C(=O)OCC(=O)NCc2ccc(Cl)cc2)cn1`, which solubility kinetic is on record?
Answer: The solubility kinetic was greater than 48 µg/mL.

Question: For `O=C(Cc1ccc(Cl)cc1)NCc1nc(-c2ccccc2)no1`, which solubility kinetic is on record?
Answer: The solubility kinetic was 1.9 µg/mL (≈ 5.8 µM).

Question: With `Cc1[nH]c2ccccc2c1-c1csc(NC(=O)CSCCO)n1` as the compound, how does the solubility kinetic read?
Answer: Its solubility kinetic is greater than 52.1 µg/mL.

Question: Which solubility kinetic does the source give for `CC(=O)N/C(=N/c1nc(C)cc(C)n1)Nc1cc(C)cc(C)c1` here?
Answer: The solubility kinetic was 3.8 µg/mL (≈ 12.2 µM).
